In patent publication US20210009542A1 (Calico Life Sciences LLC, priority 2018, published 2021):
Where two headings read alike, the source gives them in different places.

How the values were obtained:
[1] = molecular target: T1, His tagged PTPN2 (TC45) protein (Homo sapiens, UniProt P17706); assay: Mobility shift assay (MSA) for potency of PTPN2 inhibitors; type: biochemical; conditions: read-out: PTPN2 MSA IC50
T1 construct: made in house
T1 sequence (P17706 with tags, fused parts or gaps isoform P17706-2): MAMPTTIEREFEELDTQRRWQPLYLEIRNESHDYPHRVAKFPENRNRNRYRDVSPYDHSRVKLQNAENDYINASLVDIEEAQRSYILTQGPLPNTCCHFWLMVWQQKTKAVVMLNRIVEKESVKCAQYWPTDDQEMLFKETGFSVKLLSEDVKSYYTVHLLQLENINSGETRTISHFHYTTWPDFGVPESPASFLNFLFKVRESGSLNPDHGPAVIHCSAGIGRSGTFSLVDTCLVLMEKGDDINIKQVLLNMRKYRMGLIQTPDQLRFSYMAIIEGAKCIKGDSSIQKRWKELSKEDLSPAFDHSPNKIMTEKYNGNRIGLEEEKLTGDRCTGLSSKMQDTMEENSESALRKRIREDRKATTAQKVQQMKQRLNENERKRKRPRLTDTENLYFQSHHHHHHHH
Outline: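 IC50 values were derived from % inhibition of substrate conversion, measured by microfluidic mobility shift (ex 488/em 530) after quenching. The fluorescent phosphotyrosine insulin-receptor peptide ([…]) reacted for 10 min at room temperature with 0.5 nM His-tagged TC45 PTPN2 that had been preincubated 10 min with compound (12 points, 1:3). Buffer was HEPES pH 7.5 with EGTA, EDTA, Tween 20 and DTT.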

[2] = system: B16F10 mouse melanoma cells; assay: B16F10 IFNγ-induced cellular growth inhibition assay; type: cell-based; conditions: Mus musculus, B16-F10, 33 μM compound
Outline: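 Live-cell imaging of confluence every 6 h over 5 days at 37 °C tracked growth of mouse B16F10 melanoma cells seeded overnight at 500/well. Semi-log compound series (final 100–0.001 μM, 0.1% DMSO) ran in both arms, ±IFNγ at 0.5 ng/mL final; inhibition taken relative to DMSO plus IFNγ when IFNγ-free DMSO wells passed 95% confluence.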

[3] = +0.5 ng/mL IFNγ, relative to DMSO control, read-out: % B16F10 growth inhibition (+0.5 ng/mL IFNγ) @ 33 μM
[4] = no IFNγ, read-out: % B16F10 growth inhibition (no IFNγ) @ 33 μM

SMILES	IC50 [1]	inhibition at 33 µM [2, 3]	inhibition at 33 µM [2, 4]
CC(C)CCS(=O)(=O)N1CC=C(c2ccc3cc(O)c(N4CC(=O)NS4(=O)=O)c(F)c3c2)C1 [Compound 313, 5-{1-fluoro-3-hydroxy-7-[1-(3-methylbutane-1-sulfonyl)-2,5-dihydro-1H-pyrrol-3-yl]naphthalen-2-yl}-1λ^6,2,5-thiadiazolidine-1,1,3-trione]	< 1 nM	60 to 90%	< 25%
CC(C)CCOc1ccc2cc(O)c(N3CC(=O)NS3(=O)=O)c(F)c2c1 [Compound 204, 5-[1-fluoro-3-hydroxy-7-(3-methylbutoxy)naphthalen-2-yl]-1λ^6,2,5-thiadiazolidine-1,1,3-trione]	< 1 nM	60 to 90%	< 25%
N#CCC1(COc2ccc3cc(O)c(N4CC(=O)NS4(=O)=O)c(F)c3c2)CC1 [Compound 130, [1-({[8-fluoro-6-hydroxy-7-(1,1,4-trioxo-1λ^6,2,5-thiadiazolidin-2-yl)naphthalen-2-yl]oxy}methyl)cyclopropyl]acetonitrile]	< 1 nM	60 to 90%	< 25%
CC(C)OCCOc1ccc2cc(O)c(N3CC(=O)NS3(=O)=O)c(F)c2c1 [Compound 215, 5-(1-fluoro-3-hydroxy-7-{2-[(propan-2-yl)oxy]ethoxy}naphthalen-2-yl)-1λ^6,2,5-thiadiazolidine-1,1,3-trione]	1 to 10 nM	60 to 90%	< 25%
CNCC(C)(C)CCOc1ccc2cc(O)c(N3CC(=O)NS3(=O)=O)c(F)c2c1 [Compound 163, 5-{7-[3,3-dimethyl-4-(methylamino)butoxy]-1-fluoro-3-hydroxynaphthalen-2-yl}-1λ^6,2,5-thiadiazolidine-1,1,3-trione]	< 1 nM	> 90%	< 25%
O=C1CN(c2c(O)cc3ccc(/C=C/C4CC4)cc3c2F)S(=O)(=O)N1 [Compound 239, 5-{7-[(E)-2-cyclopropylethenyl]-1-fluoro-3-hydroxynaphthalen-2-yl}-1λ^6,2,5-thiadiazolidine-1,1,3-trione]	1 to 10 nM	60 to 90%	< 25%
Nc1ccccc1CS(=O)(=O)N1CC=C(c2ccc3cc(O)c(N4CC(=O)NS4(=O)=O)c(F)c3c2)C1 [Compound 195, 5-(7-{1-[(2-aminophenyl)methanesulfonyl]-2,5-dihydro-1H-pyrrol-3-yl}-1-fluoro-3-hydroxynaphthalen-2-yl)-1λ^6,2,5-thiadiazolidine-1,1,3-trione]	< 1 nM	60 to 90%	< 25%
CCOCCCOc1ccc2cc(O)c(N3CC(=O)NS3(=O)=O)c(F)c2c1 [Compound 216, 5-[7-(3-ethoxypropoxy)-1-fluoro-3-hydroxynaphthalen-2-yl]-1λ^6,2,5-thiadiazolidine-1,1,3-trione]	1 to 10 nM	25 to 59%	< 25%
CC(C)(CN)CCOc1ccc2cc(O)c(N3CC(=O)NS3(=O)=O)c(F)c2c1 [Compound 176, 5-[7-(4-amino-3,3-dimethylbutoxy)-1-fluoro-3-hydroxynaphthalen-2-yl]-1λ^6,2,5-thiadiazolidine-1,1,3-trione]	1 to 10 nM	> 90%	< 25%
N#CC1(CCOc2ccc3cc(O)c(N4CC(=O)NS4(=O)=O)c(F)c3c2)CC1 [Compound 159, 1-(2-{[8-fluoro-6-hydroxy-7-(1,1,4-trioxo-1λ^6,2,5-thiadiazolidin-2-yl)naphthalen-2-yl]oxy}ethyl)cyclopropane-1-carbonitrile]	< 1 nM	> 90%	< 25%
CC(C)C/C=C/c1ccc2cc(O)c(N3CC(=O)NS3(=O)=O)c(F)c2c1 [Compound 240, 5-{1-fluoro-3-hydroxy-7-[(1E)-4-methylpent-1-en-1-yl]naphthalen-2-yl}-1λ^6,2,5-thiadiazolidine-1,1,3-trione]	1 to 10 nM	25 to 59%	< 25%
O=C1CN(c2c(O)cc3ccc(OCCCC(F)(F)F)cc3c2F)S(=O)(=O)N1 [Compound 158, 5-[1-fluoro-3-hydroxy-7-(4,4,4-trifluorobutoxy)naphthalen-2-yl]-1λ^6,2,5-thiadiazolidine-1,1,3-trione]	1 to 10 nM	60 to 90%	< 25%
CC(C)CCNc1ccc2cc(O)c(N3CC(=O)NS3(=O)=O)c(F)c2c1 [Compound 200, 5-{1-fluoro-3-hydroxy-7-[(3-methylbutyl)amino]naphthalen-2-yl}-1λ^6,2,5-thiadiazolidine-1,1,3-trione]	1 to 10 nM	> 90%	< 25%
[2H]c1c(O)c(N2C([2H])([2H])C(=O)NS2(=O)=O)c(F)c2cc(OC)ccc12 [Compound 106, 5-[1-fluoro-3-hydroxy-7-methoxy(4-^2H)naphthalen-2-yl](4,4-^2H2)-1λ^6,2,5-thiadiazolidine-1,1,3-trione]	1 to 10 nM	60 to 90%	< 25%
CCOc1ccc2cc(O)c(N3CC(=O)NS3(=O)=O)c(F)c2c1 [Compound 301, 5-(7-ethoxy-1-fluoro-3-hydroxynaphthalen-2-yl)-1λ^6,2,5-thiadiazolidine-1,1,3-trione]	1 to 10 nM	60 to 90%	< 25%
C[C@H](O)CCOc1ccc2cc(O)c(N3CC(=O)NS3(=O)=O)c(F)c2c1 [Compound 147, 5-{1-fluoro-3-hydroxy-7-[(3S)-3-hydroxybutoxy]naphthalen-2-yl}-1λ^6,2,5-thiadiazolidine-1,1,3-trione]	< 1 nM	> 90%	< 25%
[2H]C([2H])([2H])Oc1ccc2cc(O)c(N3CC(=O)NS3(=O)=O)c(F)c2c1 [Compound 118, 5-{1-fluoro-3-hydroxy-7-[(^2H3)methyloxy]naphthalen-2-yl}-1λ^6,2,5-thiadiazolidine-1,1,3-trione]	1 to 10 nM	60 to 90%	< 25%
CC1(CCOc2ccc3cc(O)c(N4CC(=O)NS4(=O)=O)c(F)c3c2)CC1 [Compound 193, 5-{1-fluoro-3-hydroxy-7-[2-(1-methylcyclopropyl)ethoxy]naphthalen-2-yl}-1λ^6,2,5-thiadiazolidine-1,1,3-trione]	< 1 nM	25 to 59%	< 25%
COc1ccc2c(Br)c(O)c(N3CC(=O)NS3(=O)=O)c(F)c2c1 [Compound 243, 5-(4-bromo-1-fluoro-3-hydroxy-7-methoxynaphthalen-2-yl)-1λ^6,2,5-thiadiazolidine-1,1,3-trione]	10 to 100 nM	25 to 59%	< 25%
O=C1CN(c2c(O)cc3ccc(C4=CCN(C(=O)C5CC5)C4)cc3c2F)S(=O)(=O)N1 [Compound 237, 5-{7-[1-(cyclopropanecarbonyl)-2,5-dihydro-1H-pyrrol-3-yl]-1-fluoro-3-hydroxynaphthalen-2-yl}-1λ^6,2,5-thiadiazolidine-1,1,3-trione]	1 to 10 nM	> 90%	< 25%
COC/C=C/c1ccc2cc(O)c(N3CC(=O)NS3(=O)=O)c(F)c2c1 [Compound 245, 5-{1-fluoro-3-hydroxy-7-[(1E)-3-methoxyprop-1-en-1-yl]naphthalen-2-yl}-1λ^6,2,5-thiadiazolidine-1,1,3-trione]	1 to 10 nM	60 to 90%	< 25%
N#CCCCCOc1ccc2cc(O)c(N3CC(=O)NS3(=O)=O)c(F)c2c1 [Compound 111, 5-{[8-fluoro-6-hydroxy-7-(1,1,4-trioxo-1λ^6,2,5-thiadiazolidin-2-yl)naphthalen-2-yl]oxy}pentanenitrile]	< 1 nM	60 to 90%	< 25%
COC(C)(C)CCOc1ccc2cc(O)c(N3CC(=O)NS3(=O)=O)c(F)c2c1 [Compound 170, 5-[1-fluoro-3-hydroxy-7-(3-methoxy-3-methylbutoxy)naphthalen-2-yl]-1λ^6,2,5-thiadiazolidine-1,1,3-trione]	< 1 nM	60 to 90%	< 25%
N#CCCCNc1ccc2cc(O)c(N3CC(=O)NS3(=O)=O)c(F)c2c1 [Compound 174, 4-{[8-fluoro-6-hydroxy-7-(1,1,4-trioxo-1λ^6,2,5-thiadiazolidin-2-yl)naphthalen-2-yl]amino}butanenitrile]	1 to 10 nM	> 90%	< 25%
O=C1CN(c2c(O)cc3ccc(NCCC(F)(F)F)cc3c2F)S(=O)(=O)N1 [Compound 169, 5-{1-fluoro-3-hydroxy-7-[(3,3,3-trifluoropropyl)amino]naphthalen-2-yl}-1λ^6,2,5-thiadiazolidine-1,1,3-trione]	1 to 10 nM	> 90%	< 25%
